Reference: ChEMBL document CHEMBL2010684, “JBIR-78 and JBIR-95: phenylacetylated peptides isolated from Kibdelosporangium sp. AK-AA56” (2012)

System: Micrococcus luteus
Test: Antimicrobial activity against Micrococcus luteus at 10 ug after 24 hrs by paper disk method
Format: functional
Details: read-out: DIZ

SMILES | zone of inhibition at 10 µg/disc
CC[C@H]1OC(=O)[C@H](C)[C@@H](O[C@H]2C[C@@](C)(OC)[C@@H](O)[C@H](C)O2)[C@H](C)[C@@H](O[C@@H]2O[C@H](C)C[C@H](N(C)C)[C@H]2O)[C@](C)(O)C[C@@H](C)C(=O)[C@H](C)[C@@H](O)[C@]1(C)O [ERYTHROMYCIN] | 25 mm
CC(C)[C@H](NC(=O)Cc1ccccc1)C(=O)N[C@H](CC(=O)O)C(=O)N[C@@H](C)C(=O)N[C@@H](C(=O)NCC(=O)N[C@H](C)C(=O)N[C@@H](Cc1ccccc1)C(=O)O)[C@@H](O)C(C)C | 7.1 mm
